Data reported in ChEMBL document CHEMBL1201862, “PubChem BioAssay data set” (2004).
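Exposure lasted 48 hours, with cells grown in 96-well plates and compounds tested at five concentrations. At the GI50, growth is halved.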 The source made the active and inactive calls. No stated cut-off is given here; in the data, active = GI50 up to about 1.1 µM and inactive = higher.

What was measured:
Assay in all cases: NCI tumour cell line growth inhibition, 48 h
K562 = test system: K562
RPMI-8226 = test system: RPMI-8226
COLO 205 = test system: COLO 205
UO-31 = test system: UO-31
HOP-92 = test system: HOP-92
NCI-H23 = test system: NCI-H23
KM12 = test system: KM12
DU-145 = test system: DU-145
ACHN = test system: ACHN
T47D = test system: T47D
PC-3 = test system: PC-3
UACC-257 = test system: UACC-257
UACC-62 = test system: UACC-62
MDA-MB-231 = test system: MDA-MB-231
SN12C = test system: SN12C
M14 = test system: M14
A498 = test system: A498
NCI-H522 = test system: NCI-H522
MDA-MB-435 = test system: MDA-MB-435
CAKI-1 = test system: CAKI-1
MDA-N = test system: MDA-N
MCF7 = test system: MCF7
MOLT-4 = test system: MOLT-4
HT-29 = test system: HT-29
Malme-3M = test system: Malme-3M
EKVX = test system: EKVX
HCT-116 = test system: HCT-116
SF-295 = test system: SF-295
RXF 393 = test system: RXF 393
SW-620 = test system: SW-620
SR = test system: SR
BT-549 = test system: BT-549
IGROV-1 = test system: IGROV-1
NCI-H226 = test system: NCI-H226
LOX IMVI = test system: LOX IMVI
U-251 = test system: U-251
SK-MEL-2 = test system: SK-MEL-2
SK-MEL-28 = test system: SK-MEL-28
A549 = test system: A549
OVCAR-3 = test system: OVCAR-3
SF-539 = test system: SF-539
786-0 = test system: 786-0
SF-268 = test system: SF-268
HCC 2998 = test system: HCC 2998
OVCAR-4 = test system: OVCAR-4
HCT-15 = test system: HCT-15
CCRF-CEM = test system: CCRF-CEM
SNB-19 = test system: SNB-19
OVCAR-5 = test system: OVCAR-5
SK-MEL-5 = test system: SK-MEL-5
TK-10 = test system: TK-10
Hs-578T = test system: Hs-578T
NCI-H460 = test system: NCI-H460
HOP-62 = test system: HOP-62
SK-OV-3 = test system: SK-OV-3
HL-60 = test system: HL-60
NCI/ADR-RES = test system: NCI/ADR-RES
OVCAR-8 = test system: OVCAR-8
SNB-75 = test system: SNB-75

For `COc1cccc2c(Nc3ccc(S(=O)(=O)Nc4ncccn4)cc3)c3ccc([N+](=O)[O-])cc3nc12`, the GI50 (K562) was 23 µM (inactive), the GI50 (RPMI-8226) was 8.67 µM (inactive) and the GI50 (COLO 205) was 60.7 µM (inactive). For the same compound, the GI50 (UO-31) was 5.66 µM (inactive), the GI50 (HOP-92) was 12.4 µM (inactive) and the GI50 (NCI-H23) was 72.1 µM (inactive). For the same compound, the GI50 (KM12) was 12.5 µM (inactive), the GI50 (DU-145) was 19.5 µM (inactive) and the GI50 (ACHN) was 7.06 µM (inactive). The GI50 (T47D) was 8.22 µM (inactive), the GI50 (PC-3) was 40.6 µM (inactive) and the GI50 (UACC-257) was > 100 µM (inactive). For the same compound, the GI50 (UACC-62) was 9.12 µM (inactive), the GI50 (MDA-MB-231) was 38.7 µM (inactive) and the GI50 (SN12C) was 92.7 µM (inactive). The GI50 (M14) was 45.1 µM (inactive), the GI50 (A498) was > 100 µM (inactive) and the GI50 (NCI-H522) was 66.1 µM (inactive). The GI50 (MDA-MB-435) was 45.6 µM (inactive), the GI50 (CAKI-1) was 4.8 µM (inactive) and the GI50 (MDA-N) was 54.5 µM (inactive). For the same compound, the GI50 (MCF7) was 47.1 µM (inactive), the GI50 (MOLT-4) was 14.3 µM (inactive) and the GI50 (HT-29) was 57.4 µM (inactive). The GI50 (Malme-3M) was 12.9 µM (inactive), the GI50 (EKVX) was > 100 µM (inactive) and the GI50 (HCT-116) was 22.4 µM (inactive). For the same compound, the GI50 (SF-295) was > 100 µM (inactive), the GI50 (RXF 393) was 60.8 µM (inactive) and the GI50 (SW-620) was 63.8 µM (inactive). For the same compound, the GI50 (SR) was 1.95 µM (inactive), the GI50 (BT-549) was 59.7 µM (inactive) and the GI50 (IGROV-1) was 4.13 µM (inactive). The GI50 (NCI-H226) was 38.7 µM (inactive), the GI50 (LOX IMVI) was 30.6 µM (inactive) and the GI50 (U-251) was 48.5 µM (inactive). For the same compound, the GI50 (SK-MEL-2) was 89.9 µM (inactive), the GI50 (SK-MEL-28) was > 100 µM (inactive) and the GI50 (A549) was > 100 µM (inactive). The GI50 (OVCAR-3) was > 100 µM (inactive), the GI50 (SF-539) was 37.8 µM (inactive) and the GI50 (786-0) was 23.6 µM (inactive). For the same compound, the GI50 (SF-268) was > 100 µM (inactive), the GI50 (HCC 2998) was 67 µM (inactive) and the GI50 (OVCAR-4) was > 100 µM (inactive). For the same compound, the GI50 (HCT-15) was 24.7 µM, the GI50 (CCRF-CEM) was 9.82 µM (inactive) and the GI50 (SNB-19) was > 100 µM (inactive). For the same compound, the GI50 (OVCAR-5) was > 100 µM (inactive), the GI50 (SK-MEL-5) was 54.5 µM (inactive) and the GI50 (TK-10) was > 100 µM (inactive). The GI50 (Hs-578T) was > 100 µM (inactive), the GI50 (NCI-H460) was 27.7 µM (inactive) and the GI50 (HOP-62) was 85.3 µM (inactive). For the same compound, the GI50 (SK-OV-3) was 54.6 µM (inactive) and the GI50 (HL-60) was 10.4 µM (inactive).

`Cc1ccccc1S(=O)(=O)Nn1cnc2ccc(S(=O)(=O)Nc3ccc(Cl)cc3)cc2c1=O` was tested, and the GI50 (K562) was 10 µM (inactive), the GI50 (RPMI-8226) was 51.8 µM (inactive) and the GI50 (COLO 205) was > 100 µM (inactive). The GI50 (UO-31) was 18.1 µM (inactive), the GI50 (HOP-92) was > 100 µM (inactive) and the GI50 (NCI-H23) was 60.4 µM (inactive). The GI50 (NCI/ADR-RES) was > 100 µM (inactive), the GI50 (KM12) was 12.4 µM (inactive) and the GI50 (DU-145) was > 100 µM (inactive). For the same compound, the GI50 (ACHN) was > 100 µM (inactive), the GI50 (PC-3) was 16.1 µM (inactive) and the GI50 (UACC-257) was > 100 µM (inactive). The GI50 (UACC-62) was 27.5 µM (inactive), the GI50 (MDA-MB-231) was > 100 µM (inactive) and the GI50 (SN12C) was > 100 µM (inactive). For the same compound, the GI50 (M14) was 65.9 µM (inactive), the GI50 (NCI-H522) was > 100 µM (inactive) and the GI50 (MDA-MB-435) was 82.8 µM (inactive). For the same compound, the GI50 (CAKI-1) was > 100 µM (inactive), the GI50 (MDA-N) was 53.1 µM (inactive) and the GI50 (MCF7) was > 100 µM (inactive). The GI50 (MOLT-4) was > 100 µM (inactive), the GI50 (HT-29) was > 100 µM (inactive) and the GI50 (Malme-3M) was > 100 µM (inactive). The GI50 (EKVX) was 35.2 µM (inactive), the GI50 (HCT-116) was > 100 µM (inactive) and the GI50 (SF-295) was 48.4 µM (inactive). The GI50 (SW-620) was > 100 µM (inactive), the GI50 (SR) was > 100 µM (inactive) and the GI50 (BT-549) was > 100 µM (inactive). For the same compound, the GI50 (IGROV-1) was 7.59 µM (inactive), the GI50 (NCI-H226) was > 100 µM (inactive) and the GI50 (LOX IMVI) was > 100 µM (inactive). For the same compound, the GI50 (U-251) was > 100 µM (inactive), the GI50 (SK-MEL-2) was 16.6 µM (inactive) and the GI50 (SK-MEL-28) was > 100 µM (inactive). For the same compound, the GI50 (A549) was > 100 µM (inactive), the GI50 (OVCAR-3) was 85.5 µM (inactive) and the GI50 (SF-539) was > 100 µM (inactive). The GI50 (OVCAR-8) was > 100 µM (inactive), the GI50 (786-0) was > 100 µM (inactive) and the GI50 (SF-268) was > 100 µM (inactive). The GI50 (HCC 2998) was > 100 µM (inactive), the GI50 (SNB-75) was > 100 µM (inactive) and the GI50 (OVCAR-4) was > 100 µM (inactive). The GI50 (HCT-15) was greater than 100 µM, the GI50 (CCRF-CEM) was > 100 µM (inactive) and the GI50 (SNB-19) was > 100 µM (inactive). For the same compound, the GI50 (OVCAR-5) was > 100 µM (inactive), the GI50 (TK-10) was > 100 µM (inactive) and the GI50 (Hs-578T) was 28.8 µM (inactive). For the same compound, the GI50 (NCI-H460) was > 100 µM (inactive), the GI50 (HOP-62) was > 100 µM (inactive) and the GI50 (SK-OV-3) was > 100 µM (inactive). The GI50 (HL-60) was > 100 µM (inactive).

For `CC1OC1P(=O)(O)O` (stereo not drawn), the GI50 (K562) was > 100 µM (inactive), the GI50 (RPMI-8226) was 28 µM (inactive) and the GI50 (COLO 205) was > 100 µM (inactive). For the same compound, the GI50 (UO-31) was > 100 µM (inactive), the GI50 (HOP-92) was > 100 µM (inactive) and the GI50 (NCI-H23) was > 100 µM (inactive). For the same compound, the GI50 (KM12) was > 100 µM (inactive), the GI50 (DU-145) was > 100 µM (inactive) and the GI50 (ACHN) was > 100 µM (inactive). For the same compound, the GI50 (T47D) was > 100 µM (inactive), the GI50 (PC-3) was > 100 µM (inactive) and the GI50 (UACC-257) was > 100 µM (inactive). For the same compound, the GI50 (UACC-62) was > 100 µM (inactive), the GI50 (MDA-MB-231) was > 100 µM (inactive) and the GI50 (SN12C) was > 100 µM (inactive). For the same compound, the GI50 (A498) was > 100 µM (inactive), the GI50 (MDA-MB-435) was > 100 µM (inactive) and the GI50 (CAKI-1) was > 100 µM (inactive). For the same compound, the GI50 (MDA-N) was > 100 µM (inactive), the GI50 (MCF7) was > 100 µM (inactive) and the GI50 (MOLT-4) was > 100 µM (inactive). For the same compound, the GI50 (HT-29) was > 100 µM (inactive), the GI50 (EKVX) was > 100 µM (inactive) and the GI50 (HCT-116) was > 100 µM (inactive). For the same compound, the GI50 (SF-295) was > 100 µM (inactive), the GI50 (RXF 393) was > 100 µM (inactive) and the GI50 (SW-620) was > 100 µM (inactive). The GI50 (SR) was > 100 µM (inactive), the GI50 (BT-549) was > 100 µM (inactive) and the GI50 (IGROV-1) was > 100 µM (inactive). The GI50 (LOX IMVI) was > 100 µM (inactive), the GI50 (U-251) was > 100 µM (inactive) and the GI50 (SK-MEL-2) was > 100 µM (inactive). For the same compound, the GI50 (SK-MEL-28) was > 100 µM (inactive), the GI50 (A549) was > 100 µM (inactive) and the GI50 (OVCAR-3) was > 100 µM (inactive). For the same compound, the GI50 (OVCAR-8) was > 100 µM (inactive), the GI50 (786-0) was > 100 µM (inactive) and the GI50 (SF-268) was > 100 µM (inactive). For the same compound, the GI50 (HCC 2998) was > 100 µM (inactive), the GI50 (SNB-75) was > 100 µM (inactive) and the GI50 (OVCAR-4) was > 100 µM (inactive). The GI50 (HCT-15) was greater than 100 µM, the GI50 (CCRF-CEM) was 27.5 µM (inactive) and the GI50 (SNB-19) was > 100 µM (inactive). The GI50 (OVCAR-5) was 26.3 µM (inactive), the GI50 (SK-MEL-5) was > 100 µM (inactive) and the GI50 (TK-10) was > 100 µM (inactive). The GI50 (Hs-578T) was > 100 µM (inactive), the GI50 (NCI-H460) was > 100 µM (inactive) and the GI50 (HOP-62) was > 100 µM (inactive). The GI50 (SK-OV-3) was > 100 µM (inactive).
